Measurements from patent US11241398B2, “Affinity medicant conjugate” (Califia Pharma Inc., priority 2014, dated 2022).
Where two headings read alike, the source gives them in different places. Marks after values point to notes of the source that are not given here. Residues, ends and D or L forms follow the SMILES beside them. *: point of attachment. X3 = CC1=C(C*)C2=C(C)C3(CC3)C(C)(O)C(=O)C2=C1

Columns and labels:
[1] = system: MV522 cell line; assay: two hour toxicity: inhibition of 50% of DNA synthesis activity, target cell line; conditions: for IC50: read-out: Mean IC50 value, MV522 Target Cell Line, 2 hr exposure, MV522 target cell line, 2 hr exposure, mean ± SD, N = 3 unless otherwise indicated; for cytotoxicity (in words): see Table XV
Experimental: (§1) The MV522 cell line is a lung-derived adenocarcinoma cell line. In various embodiments of the invention, the MV522 cell line represents a “target” cell line. […] The two hour toxicity data represents the concentration of a given analog for which a two hour exposure will inhibit 50% of the DNA synthesis activity in a given cell line. The 48 hour exposure data represents the concentration at which a given analog with a 48 hour exposure will inhibit the growth or viability in a given cell line as defined by the standard Trypan Blue Exclusion assay.

[2] = system: 8392B cell line; assay: two hour toxicity: inhibition of 50% of DNA synthesis activity, nontarget cell line; format: cell-based; conditions: read-out: Mean IC50 value, 8392B Nontarget Cell Line, 2 hr exposure, mean ± SD, N = 3 unless otherwise indicated
Experimental: as §1

[3] = system: MCF7 (ER positive); assay: cytotoxic data IC50, 2 hour exposure, cells expressing the estrogen receptor; format: cell-based; conditions: for preferential killing of MCF7 (ER positive) versus ER negative cells: Table VII
Description: (§2) MCF7 over express estrogen alpha-receptors.
(§3) MCF7 cells over express estrogen alpha-receptors.

[4] = system: NCI-DTP 60 cell line panel; conditions: cited from earlier work
[5] = system: Prostate LnCAP (positive PSA); assay: activity of PSA cleavable analogs, 48 hour exposure, PSA positive cell line; format: cell-based; conditions: N = 3, mean ± SD
[6] = system: MV522 cell line; assay: 48 hour exposure, growth or viability by Trypan Blue Exclusion assay, target cell line; format: cell-based; conditions: read-out: Mean IC50 value, MV522 Target Cell Line, 48 hr exposure, mean ± SD, N = 3 unless otherwise indicated
Experimental: as §1

[7] = system: 8392B cell line; assay: 48 hour exposure, growth or viability by Trypan Blue Exclusion assay, nontarget cell line; format: cell-based; conditions: for IC50: read-out: Mean IC50 value, 8392B Nontarget Cell Line, 48 hr exposure, 8392B nontarget cell line, 48 hr exposure, mean ± SD, N = 3 unless otherwise indicated
Experimental: as §1

[8] = system: HT29 (ER Negative); assay: cytotoxic data IC50, 2 hour exposure, cells not expressing the estrogen receptor; format: cell-based; conditions: N = 3, mean ± SD
Description: as §2, §3

[9] = system: MDR phenotypes; assay: multidrug resistance studies (mechanisms of drug resistance); format: cell-based; conditions: multi-medicant resistance phenotype, Bcl-2 over expression, p53 and p21/WAF1 mutations
[10] = system: hormone-refractory prostate cancer; conditions: cited from earlier work

CC1=C(OC(=O)CCCCC(=O)c2ccccc2)C2=C(C)C3(CC3)[C@@](C)(O)C(=O)C2=C1 [Analog 158]
IC50 [1]: > 175 µM | IC50 [2]: > 200 µM

CC1=C2C(=CC(C)(C)[C@@H]2O)C(=O)[C@](C)(O)C12CC2 [Illudin M, reference compound]
preferential killing of MCF7 (ER positive) versus ER negative cells [3]: to the same extent | Mean LD50 cytotoxic ([4]; NCI DTP 60 cell line mean): 912 nM

CC1=C2C(=C[C@@](C)(CO[Si](C)(C)C(C)(C)C)[C@@H]2OC(=O)[C@@H]2CCCN2C(=O)[C@H](CO)NC(=O)[C@@H](N)CO)C(=O)[C@](C)(O)C12CC2 [Analog 214]
IC50 [5]: 190 ± 30 nM

CC1=C(CCCNS(N)(=O)=O)C2=CC3(CC3)C(C)(O)C(=O)C2=C1 (centres unmarked) [Analog 264]
IC50 [6]: 0.076 ± 0.017 µM | IC50 [2]: > 85 µM

CC[C@H](C)[C@@H]([C@@H](CC(=O)N1CCC[C@H]1[C@H](OC)[C@@H](C)C(=O)NCCc1ccccc1)OC)N(C)C(=O)[C@@H](NC(=O)[C@H](C(C)C)N(C)C)C(C)C [Auristatins]
Mean LD50 cytotoxic ([4]; NCI DTP 60 cell line mean): >5,000 nM | Mean TGI cytostatic ([4]; NCI DTP 60 cell line mean): 902** nM | GI50 ([4]; read-out: Mean GI50 inhibition, NCI DTP 60 cell line mean): 1.4 nM

CC1=C(CCC(=O)Oc2ccc3c(c2)CC[C@@H]2[C@@H]3CC[C@]3(C)C(=O)CC[C@@H]23)C2=C(C)C3(CC3)[C@@](C)(O)C(=O)C2=C1 [Analog 110]
preferential killing of MCF7 (ER positive) versus ER negative cells [3]: preferentially killed | IC50 [1]: > 55 µM | IC50 [7]: 25.3 ± 2.1 µM | IC50 [8]: > 19 µM | IC50 [2]: > 55 µM

CC(=O)OCC1=C(CO)C=C2C(=O)C(C)(OC(C)=O)C3(CC3)C(C)=C21 (centres unmarked) [Analog 103]
IC50 [6]: 5.9 ± 0.4 µM | IC50 [1]: 31.8 ± 4.9 µM | IC50 [2]: 12.1 ± 2 µM

CC1=C(CSCCC(N)C(=O)O)C2=C(C)C3(CC3)[C@@](C)(O)C(=O)C2=C1 (some centres unmarked) [Analog 097]
IC50 [2]: > 82 µM

CC1=CC2=C(C)C3(CC3)C(C)(O)C(=NO)C2=C1 (centres unmarked) [Analog 224]
differential toxicity between the target and nontarget cell line ([1]; MV522 versus 8392B): no differential toxicity | toxicity (in words) ([1]; target and nontarget cell line): minimal toxicity

C=C1C[C@@H]2CC[C@@]34C[C@H]5O[C@H]6[C@@H](O3)[C@H]3O[C@H](CC[C@@H]3O[C@H]6[C@H]5O4)CC(=O)O[C@@H]3[C@@H](C)[C@@H]4O[C@@H]5C[C@]6(C[C@@H]7O[C@]8(C[C@H](C)[C@@H]9O[C@H]([C@@H](O)C[C@@H](O)CO)C[C@@H]9O8)C[C@H](C)[C@@H]7O6)O[C@@H]5C[C@@H]4O[C@H]3C[C@H]3O[C@@H](CC[C@@H]1O2)C[C@@H](C)C3=C [Halichondrin B]
Mean TGI cytostatic ([4]; NCI DTP 60 cell line mean): 199 nM | Mean LD50 cytotoxic [4]: >1,000 nM

CC1=C(CCCN2C(=O)C=CC2=O)C2=C(C)C3(CC3)[C@@](C)(O)C(=O)C2=C1 [Analog 190]
cytotoxicity (in words) [1]: cytotoxic with nM activity

COC(=O)C1=C(C(=O)OC)C23C=C(C)C1C2=C(C)C1(CC1)C(C)(O)C3O (centres unmarked) [Analog 141]
IC50 [6]: 3.7 ± 0.8 µM | IC50 [2]: 13.7 ± 1.9 µM

CON(CC1=C(C)C=C2C(=O)[C@](C)(O)C3(CC3)C(C)=C21)C(=O)C(N)Cc1c[nH]c2ccccc12 (some centres unmarked) [Analog 154]
IC50 [1]: > 70 µM | IC50 [2]: > 70 µM

CC1=C2C(=CC(C)(C)[C@@H]2OC(=O)CCCCCN2C(=O)C=CC2=O)C(=O)[C@](C)(O)C12CC2 [Analog 218]
IC50 [6]: 0.6 ± 0.2 µM | cytotoxicity (in words) [1]: cytotoxic with nM activity | IC50 [7]: 0.6 ± 0.1 µM

CC1=C(COC(=O)CCCCCN2C(=O)C=CC2=O)C2=C(C)C3(CC3)[C@@](C)(O)C(=O)C2=C1 [Analog 217]
cytotoxicity (in words) [1]: cytotoxic with nM activity

CC1=C(CSCC(N)C(=O)NC(CC(N)=O)C(=O)NCC(=O)NC(CCCNC(=N)N)C(=O)NC(CS)C(=O)O)C2=C(C)C3(CC3)C(C)(O)C(=O)C2=C1 (centres unmarked) [Analog 102] (H-C(X3)NGRC-OH; configuration not given here)
IC50 [1]: > 13 µM

CC1=C(CCC(=O)OC2CCC3(C)C(CCC4C5CCC(=O)C5(C)CCC43)C2)C2=C(C)C3(CC3)[C@@](C)(O)C(=O)C2=C1 (some centres unmarked) [Analog 112]
IC50 [7]: 5.2 ± 0.3 µM | IC50 [2]: 14.9 ± 0.1 µM

CC1=C(CN2C(=O)C=CC2=O)C2=C(C)C3(CC3)[C@@](C)(O)C(=O)C2=C1 [Analog 189]
cytotoxicity (in words) [1]: cytotoxic with nM activity

CC1=C(CCCNS(C)(=O)=O)C2=C(C)C3(CC3)[C@@](C)(O)C(=O)C2=C1 [Analog 241]
IC50 [2]: > 28 µM

CC1=C(CCCNC(=O)OCC2=C(C(=O)O)N3C(=O)C(NC(=O)Cc4cccs4)C3S(=O)(=O)C2)C2=C(C)C3(CC3)C(C)(O)C(=O)C2=C1 (centres unmarked) [Analog 274]
IC50 [7]: > 4.5 µM | IC50 [2]: > 46 µM

CC1=C2C(=CC(C)(COC(=O)c3cc([N+](=O)[O-])cc([N+](=O)[O-])c3)C2OC(=O)CCCC(=O)O)C(=O)C(C)(O)C12CC2 (centres unmarked) [Analog 118]
IC50 [2]: 24.5 ± 4.5 µM

CC1=C(COC2OC(CO)C(O)C(O)C2O)C2=C(C)C3(CC3)C(C)(O)C(=O)C2=C1 (centres unmarked) [Analog 018]
IC50 [1]: 8.8 ± 2.9 µM

CC1=C(CSC[C@@H](C)C(=O)N2CCCC2C(=O)O)C2=C(C)C3(CC3)[C@@](C)(O)C(=O)C2=C1 (some centres unmarked) [Analog 098]
IC50 [6]: 4.6 ± 0.25 µM | IC50 [1]: 18.8 ± 2.5 µM | IC50 [7]: 11.7 ± 1.8 µM | IC50 [2]: > 65 µM

CC1=C2C(=O)C(C)(OC(C)C)CC2C(O)C(=O)C12CC2 (centres unmarked) [Analog 183]
IC50 [1]: > 120 µM | IC50 [7]: > 235 µM | IC50 [2]: > 120 µM

CC1=C(CO)C2=C(C)C3(CC3)[C@@](C)(O)C(=O)C2=C1 [Irofulven, 6-hydroxymethylacylfulvene]
activity versus common resistance mechanisms [9]: independent of common resistance mechanisms | clinical activity [10]: demonstrated clinical activity | safety profile [10]: acceptable safety profile

CC(=O)ON(C(C)=O)c1ccc(C(=O)OCC2(C)C=C3C(=O)C(C)(O)C4(CC4)C(C)=C3C2OC(=O)c2ccc(N(OC(C)=O)C(C)=O)cc2)cc1 (centres unmarked) [Analog 140]
IC50 [6]: > 14 µM | IC50 [7]: > 14 µM

CC1=C2C(=C[C@@](C)(CO[Si](C)(C)C(C)(C)C)[C@@H]2OC(=O)c2ccc(S(=O)(=O)F)cc2)C(=O)[C@](C)(O)C12CC2 [Analog 219]
IC50 [1]: > 52 µM | IC50 [7]: > 52 µM | IC50 [2]: > 52 µM

CC1=C2C(=CC(C)(CO[Si](C)(C)C(C)(C)C)C2N)C(=O)C(C)(O)C12CC2 (centres unmarked) [Analog 205]
IC50 [1]: 8.4 ± 2.2 µM | IC50 [7]: > 2.6 µM | IC50 [2]: > 185 µM

CC1=C2C(=CC(C)(C)[C@@H]2OC(=O)CCCC(=O)Oc2ccc3c(c2)CC[C@@H]2[C@@H]3CC[C@]3(C)C(=O)CC[C@@H]23)C(=O)[C@](C)(O)C12CC2 [Analog 107]
IC50 [1]: > 50 µM | IC50 [2]: > 50 µM

CC1=C2[C@@H](O)C(C)(C)[C@H]3C[C@@]23C(=O)[C@](C)(O)C12CC2 [Analog 252]
IC50 [1]: > 380 µM | IC50 [7]: > 380 µM | IC50 [2]: > 380 µM

COC(=O)C1=C(C(=O)OC)C23C=C(C)C1C2=C(C)C1(CC1)C(C)(O)C3=O (centres unmarked) [Analog 142]
IC50 [6]: 0.024 ± 0.007 µM

CC1=C2C(=O)C(C)(CO)C=C2C(=O)C(C)(O)C12CC2 (centres unmarked) [Analog 099]
IC50 [1]: 8.4 ± 1.1 µM | IC50 [2]: 4 ± 0.4 µM

CC(=O)ON(C(C)=O)c1ccc(C(=O)OCC2(C)C=C3C(=O)C(C)(O)C4(CC4)C(C)=C3C2O)cc1 (centres unmarked) [Analog 136]
IC50 [2]: > 6.2 µM

CC1=CC2C(=C(C)C3(CC3)C(C)(O)C2O)C1=O (centres unmarked) [Analog 186]
IC50 [6]: 70 ± 16 µM | IC50 [1]: 144 ± 32 µM

CC1=C2C(=CC(C)(C)C2OC(=O)CCCC(=O)Oc2ccc3c(c2)CCC2C3CCC3(C)C(O)CCC23)C(=O)C(C)(O)C12CC2 (centres unmarked) [Analog 109]
IC50 [1]: > 50 µM | IC50 [2]: > 50 µM

CC1=C(CCC(=O)Oc2ccc3c(c2)CCC2C3CCC3(C)C(O)CCC23)C2=C(C)C3(CC3)C(C)(O)C(=O)C2=C1 (centres unmarked) [Analog 108]
IC50 ([3]; N = 3, mean ± SD): 14.1 ± 2.8 µM | IC50 [6]: 0.52 ± 0.05 µM | IC50 [1]: 12.3 ± 2.3 µM | IC50 [8]: > 55 µM | IC50 [2]: > 55 µM

CC1=C2C(=CC(C)(C)[C@@H]2OC(=O)c2ccc(S(=O)(=O)F)cc2)C(=O)[C@](C)(O)C12CC2 [Analog 222]
IC50 [2]: 9.3 µM

CC1=C(CO)C2=C(C)C3(CC3)[C@@](C)(O)C(=O)C2=C1 [Analog 002]
inhibition of the nontarget cell line with prolonged exposure ([7]; prolonged exposure period (e.g. 48 hours)): can eventually inhibit the nontarget cell line

CC1=C2C(=CC(C)(COC(=O)CCCC(=O)O)C2OC(=O)CCCC(=O)O)C(=O)C(C)(O)C12CC2 (centres unmarked) [Analog 117]
IC50 [7]: 0.01 ± 0.002 µM
